Assay results taken from patent US20140135319A1, “6-SUBSTITUTED IMIDAZOPYRAZINES FOR USE AS MPS-1 AND TKK INHIBITORS IN THE TREATMENT OF HYPERPROLIFERATIVE DISORDERS” (BAYER INTELLECTUAL PROPERTY GMBH, priority 2010, published 2014).

Target: T1, human kinase Mps-1 (Homo sapiens, UniProt P33981)
T1 construct: N-terminally GST-tagged human full length recombinant Mps-1 kinase; GST (N); purchased Invitrogen, Karslruhe, Germany PV4071
T1 sequence (P33981 1-857): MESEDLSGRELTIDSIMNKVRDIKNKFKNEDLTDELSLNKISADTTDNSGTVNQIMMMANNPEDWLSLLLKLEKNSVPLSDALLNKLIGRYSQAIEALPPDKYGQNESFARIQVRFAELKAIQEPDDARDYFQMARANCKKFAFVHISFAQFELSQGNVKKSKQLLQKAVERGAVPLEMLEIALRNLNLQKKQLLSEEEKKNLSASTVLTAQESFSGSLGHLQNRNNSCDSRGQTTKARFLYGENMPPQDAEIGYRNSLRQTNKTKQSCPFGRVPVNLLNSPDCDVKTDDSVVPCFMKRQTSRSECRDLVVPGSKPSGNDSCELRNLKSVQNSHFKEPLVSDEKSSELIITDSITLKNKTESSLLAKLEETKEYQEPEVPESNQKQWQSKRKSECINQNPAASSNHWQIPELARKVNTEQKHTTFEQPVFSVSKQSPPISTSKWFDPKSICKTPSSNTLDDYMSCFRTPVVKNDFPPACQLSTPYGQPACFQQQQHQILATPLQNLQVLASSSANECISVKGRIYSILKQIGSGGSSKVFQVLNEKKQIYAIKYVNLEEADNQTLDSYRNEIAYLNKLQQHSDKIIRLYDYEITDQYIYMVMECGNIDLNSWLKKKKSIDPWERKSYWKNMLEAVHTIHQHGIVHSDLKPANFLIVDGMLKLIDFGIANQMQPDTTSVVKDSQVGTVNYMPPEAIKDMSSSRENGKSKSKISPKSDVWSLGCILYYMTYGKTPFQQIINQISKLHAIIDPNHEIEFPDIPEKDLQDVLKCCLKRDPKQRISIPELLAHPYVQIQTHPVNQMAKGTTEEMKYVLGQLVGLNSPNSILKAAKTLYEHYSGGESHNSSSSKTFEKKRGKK
Assay: Mps-1 kinase assay (TR-FRET)
Format: biochemical
Settings: GST-tagged human full length recombinant Mps-1; 10 μM ATP; 1 μM peptide substrate; 60 min at 22° C.
Method in brief: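 TR-FRET read-out: after 1 h binding at 22° C, Eu-labelled anti-phospho-Ser/Thr antibody transfers to SA-XLent on the phosphorylated biotinylated peptide. The enzyme is GST-tagged full-length human Mps-1, typically about 1 nM final, in the linear range.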

Row | Structure (SMILES) | IC50
1 | NC(=O)Cc1cccc(-c2cn3c(-c4ccc(C(=O)NC5CC5)cc4)cnc3c(NCCCO)n2)c1 [Example 1-89, 4-{6-[3-(2-amino-2-oxo-ethyl)phenyl]-8-[(3-hydroxy-propyl)amino]imidazo[1,2-a]pyrazin-3-yl}-N-cyclopropyl-benzamide] | 4.8 nM
2 | O=C(NC1CC1)c1ccc(-c2cnc3c(NCC4CCCO4)nc(-c4ccncc4)cn23)cc1F (stereo not shown) [Example 1-61, N-cyclopropyl-2-fluoro-4-{6-(pyridin-4-yl)-8-[(tetrahydrofuran-2-ylmethyl)amino]imidazo [1,2-a]pyrazin-3-yl} benzamide] | 13.1 nM
3 | CC(C)(O)CNc1nc(-c2ccncc2)cn2c(-c3ccc(C(=O)NC4CC4)cc3)cnc12 [Example 1-90, N-cyclopropyl-4-{8-[(2-hydroxy-2-methylpropyl)amino]-6-(pyridin-4-yl)imidazo[1,2-a]pyrazin-3-yl} benzamide] | 5 nM
4 | O=C(NC1CC1)c1ccc(-c2cnc3c(NCc4ccccc4)nc(-c4ccncc4)cn23)cc1 [Example 3-12, 4-[8-(benzylamino)-6-(pyridin-4-yl)imidazo [1,2-a]pyrazin-3-yl]-N-cyclopropylbenzamide] | 2.3 nM
5 | CC(C)CNc1nc(-c2ccncc2)cn2c(-c3ccc(C(=O)NC4CC4)c(F)c3)cnc12 [Example 1-49, N-cyclopropyl-2-fluoro-4-{8-[(2-methylpropyl)amino]-6-(pyridin-4-yl)imidazo[1,2-a]pyrazin-3-yl}benzamide] | 3.7 nM
6 | CC(C)CNc1nc(C#N)cn2c(-c3ccc(C(=O)NC4CC4)cc3)cnc12 [Example 5-1, 4-{6-cyano-8-[(2-methylpropyl)amino]imidazo[1,2-a]pyrazin-3-yl}-N-cyclopropyl benzamide] | 55.1 nM
7 | CC(C)(O)CNc1nc(-c2ccoc2)cn2c(-c3ccc(C(=O)NC4CC4)c(F)c3)cnc12 [Example 1-58, N-cyclopropyl-2-fluoro-4-{6-(furan-3-yl)-8-[(2-hydroxy-2-methyl-propyl)amino]imidazo [1,2-a]pyrazin-3-yl} benzamide] | 23.1 nM
8 | Cn1nccc1CNc1nc(-c2ccn[nH]2)cn2c(-c3ccc(C(=O)NC4CC4)c(F)c3)cnc12 [Example 1-66, N-cyclopropyl-2-fluoro-4-[8-{[(1-methyl-1H-pyrazol-5-yl)methyl]amino}-6-(1H-pyrazol-5-yl)imidazo[1,2-a]pyrazin-3-yl]benzamide] | 30.5 nM
9 | Cn1nccc1CNc1nc(-c2cccc(CC(N)=O)c2)cn2c(-c3ccc(C(=O)NC4CC4)cc3)cnc12 [Example 1-92, 4-(6-[3-(2-Amino-2-oxo-ethyl)phenyl]-8-{[(1-methyl-1H-pyrazol-5-yl)methyl]amino}imidazo[1,2-a]pyrazin-3-yl)-N-cyclopropyl benzamide] | 3.8 nM
10 | Cc1cc(-c2cnc3c(NCCC(F)(F)F)nc(-c4cccnc4)cn23)ccc1C(=O)NC1CC1 [Example 1-70, N-cyclopropyl-2-methyl-4-{6-(pyridin-3-yl)-8-[(3,3,3-trifluoropropyl)amino]imidazo[1,2-a]pyrazin-3-yl}benzamide] | 4.2 nM
11 | CC(C)CNc1nc(C2=CCSCC2)cn2c(-c3ccc(C(=O)NC4CC4)cc3)cnc12 [Example 1-28, N-cyclopropyl-4-{6-(3,6-dihydro-2H-thiopyran-4-yl)-8-[(2-methylpropyl)amino]imidazo[1,2-a]pyrazin-3-yl}benzamide] | 2 nM
12 | Cn1nccc1CNc1nc(-c2ccn[nH]2)cn2c(-c3ccc(C(=O)NC4CC4)c(Cl)c3)cnc12 [Example 1-48, 2-chloro-N-cyclopropyl-4-[8-{[(1-methyl-1H-pyrazol-5-yl)methyl]amino}-6-(1H-pyrazol-5-yl)imidazo[1,2-a]pyrazin-3-yl]benzamide] | 42.3 nM
13 | O=C(NC1CC1)c1ccc(-c2cnc3c(NCCCN4CCCC4=O)nc(-c4ccncc4)cn23)cc1 [Example 3-8, N-cyclopropyl-4-[8-{[3-(2-oxopyrrolidin-1-yl)propyl]amino}-6-(pyridin-4-yl)imidazo[1,2-a]pyrazin-3-yl]benzamide] | 17.6 nM
14 | Cc1ccc(-c2cn3c(-c4ccc(C(=O)NC5CC5)cc4)cnc3c(NCC(C)C)n2)cn1 [Example 1-20, N-cyclopropyl-4-{8-[(2-methylpropyl)amino]-6-(6-methylpyridin-3-yl)imidazo[1,2-a]pyrazin-3-yl}benzamide] | 2.9 nM
15 | Cc1cc(-c2cnc3c(NCCC(F)(F)F)nc(C4=CCNCC4)cn23)ccc1C(=O)NC1CC1 [Example 1-76, N-cyclopropyl-2-methyl-4-{6-(1,2,3,6-tetrahydro-pyridin-4-yl)-8-[(3,3,3-trifluoropropyl)amino]imidazo[1,2-a]pyrazin-3-yl}benzamide] | 13 nM
16 | Cn1cc(CNc2nc(-c3cccc(CC(N)=O)c3)cn3c(-c4ccc(C(=O)NC5CC5)cc4)cnc23)cn1 [Example 1-93, 4-(6-[3-(2-Amino-2-oxo-ethyl)phenyl]-8-{[(1-methyl-1H-pyrazol-4-yl)methyl]amino}imidazo[1,2-a]pyrazin-3-yl)-N-cyclopropyl benzamide] | 4.9 nM
17 | CC(C)CNc1nc(-c2ccoc2)cn2c(-c3ccc(C(=O)NC4CC4)c(Cl)c3)cnc12 [Example 1-33, 2-chloro-N-cyclopropyl-4-{6-(furan-3-yl)-8-[(2-methylpropyl)amino]imidazo[1,2-a]pyrazin-3-yl}benzamide] | 12.4 nM
18 | Cc1cc(-c2cnc3c(NCC4CCCO4)nc(C4=CCOCC4)cn23)ccc1C(=O)NC1CC1 (stereo not shown) [Example 6-4, N-cyclopropyl-4-{6-(3,6-dihydro-2H-pyran-4-yl)-8-[(tetrahydrofuran-2-ylmethyl)amino]imidazo[1,2-a]pyrazin-3-yl}-2-methylbenzamide] | 35.7 nM
19 | Cn1nccc1CNc1nc(-c2ccncc2)cn2c(-c3ccc(C(=O)NC4CC4)c(F)c3)cnc12 [Example 1-64, N-cyclopropyl-2-fluoro-4-[8-{[(1-methyl-1H-pyrazol-5-yl)methyl]amino}-6-(pyridin-4-yl)imidazo[1,2-a]pyrazin-3-yl]benzamide] | 6.5 nM
20 | Cc1cc(-c2cnc3c(NCCC4CCN(C)CC4)nc(C4=CCOCC4)cn23)ccc1C(=O)NC1CC1 [Example 6-14, N-cyclopropyl-4-[6-(3,6-dihydro-2H-pyran-4-yl)-8-{[2-(1-methyl-piperidin-4-yl)ethyl]amino}imidazo[1,2-a]pyrazin-3-yl]-2-methylbenzamide] | 293 nM
21 | CC(O)CNc1nc(-c2ccncc2)cn2c(-c3ccc(C(=O)NC4CC4)cc3)cnc12 (stereo not shown) [Example 3-23, N-cyclopropyl-4-{8-[(2-hydroxypropyl)amino]-6-(pyrdin-4-yl)imidazo [1,2-a]pyrazin-3-yl} benzamide] | 8 nM
22 | CC(C)CNc1nc(CCCO)cn2c(-c3ccc(C(=O)NC4CC4)cc3)cnc12 [Example 7-3, N-cyclopropyl-4-{6-(3-hydroxypropyl)-8-[(2-methylpropyl)amino]imidazo[1,2-a]pyrazin-3-yl}benzamide] | 7.2 nM
23 | Cc1cc(-c2cnc3c(NCCC(F)(F)F)nc(-c4cncnc4)cn23)ccc1C(=O)NC1CC1 [Example 1-73, N-cyclopropyl-2-methyl-4-{6-(pyrimidin-5-yl)-8-[(3,3,3-trifluoropropyl)amino]imidazo[1,2-a]pyrazin-3-yl}benzamide] | 21.4 nM
24 | O=C(NC1CC1)c1ccc(-c2cnc3c(NCC4CCCO4)nc(-c4ccn[nH]4)cn23)cc1F (stereo not shown) [Example 1-63, N-cyclopropyl-2-fluoro-4-{6-(1H-pyrazol-5-yl)-8-[(tetrahydrofuran-2-ylmethyl)amino]imidazo [1,2-a]pyrazin-3-yl} benzamide] | 95.5 nM
25 | CC(C)CNc1nc(-c2ccccc2)cn2c(-c3ccc(C(=O)NC4(C)CC4)cc3)cnc12 [Example 2-3, N-(1-methylcyclopropyl)-4-{8-[(2-methylpropyl)amino]-6-phenylimidazo [1,2-a]pyrazin-3-yl}benzamide] | 208 nM
26 | Cc1cc(-c2cnc3c(NCC(C)C)nc(C4=CCOCC4)cn23)ccc1C(=O)NC1CC1 [Example 6-5, N-cyclopropyl-4-{6-(3,6-dihydro-2H-pyran-4-y1)-8-[(2-methylpropyl)amino]imidazo[1,2-a]pyrazin-3-yl}-2-methylbenzamide] | 9.3 nM
27 | O=C(NC1CC1)c1ccc(-c2cnc3c(NCC4CCCCO4)nc(-c4ccncc4)cn23)cc1 (stereo not shown) [Example 3-36, N-cyclopropyl-4-{6-(pyridin-4-yl)-8-[(tetrahydro-2H-pyran-2-ylmethyl)amino]imidazo[1,2-a]pyrazin-3-yl} benzamide] | 3.5 nM
28 | Cc1cc(-c2cnc3c(NCC4CC4C)nc(C4=CCOCC4)cn23)ccc1C(=O)NC1CC1 (stereo not shown) [Example 6-16, N-cyclopropyl-4-[6-(3,6-dihydro-2H-pyran-4-yl)-8-{[(2-methylcyclo-propyl)methyl]amino}imidazo [1,2-a]pyrazin-3-yl]-2-methylbenzamide] | 8.6 nM
